Measurements reported in PMC12040169 (PLOS Biology, 2025).

Assay: in vitro
Conditions: human, hela cells, % viability

First: CN1CCCCC[C@@H]2[C@@H]1[C@H](c1ccccc1)CN2C(=O)CN1CCCCCC1=O [CBK285524]
Second: O=C(NC1(c2ccccc2)CCCC1)c1ccc(=O)n(CC(=O)N2CCCCC2)c1 [CBK285631]
The viability at 28.5 h, 10 µM of the first is lower: 87.5% for the first, 90.5% for the second.

Compared with `CC(C)NC(=O)[C@H]1CN(C(=O)c2cc[nH]n2)C[C@@H]1c1ccnc(N2CCCC2)n1` [CBK285526], `Cc1cnc2c(C(=O)N3CC(C(=O)N4CCN(c5ccccc5)CC4)C3)cnn2c1` [CBK285641] is higher in viability at 28.5 h, 10 µM: 89.3% for the first, 92.4% for the second.

Compared with `O=C1NCCCC12CCN(Cc1cnc(N3CCOCC3)nc1)CC2` [CBK285528], `Cc1oc(C(=O)Nc2cccc(CCc3ccncc3)c2)cc1CN1CCOCC1` [CBK285547] is lower in viability at 28.5 h, 10 µM: 111% for the first, 92.8% for the second.

Going from `Cc1cccc([C@H]2CN(C(=O)C3CCCC3)[C@@H]3CCN(C4CCCC4)C[C@H]23)c1` [CBK285529] to `Nc1ncc(-c2ccc(Cl)cc2)c(C2CCCN(C(=O)C3CCCC3)C2)n1` (stereo not drawn) [CBK285571], the viability at 28.5 h, 10 µM falls from 118% to 95.1%.

Compared with `Cc1cccc(CN2CCCC[C@H]3CN(C(=O)c4cccs4)C[C@H]32)c1` [CBK285530], `Cc1cccc(CN2CC[C@H]3[C@@H](C2)[C@H](c2ccsc2)CN3C(=O)c2ccccc2)c1` [CBK285619] is higher in viability at 28.5 h, 10 µM: 85.8% for the first, 106% for the second.

Going from `COc1ccc(OC)c(C(O)CN2CCc3sccc3C2c2cccs2)c1` (stereo not drawn) [CBK285532] to `CC(Oc1ccc2c(c1)OCO2)C(=O)N1CCc2sccc2C1c1ccccc1` (stereo not drawn) [CBK285549], the viability at 28.5 h, 10 µM falls from 109% to 91.9%.

First: O=C(NCc1cccs1)C1(Cc2ccc(-c3ccc(F)c(F)c3)cc2)CCOCC1 [CBK285533]
Second: O=C(NCC1CCCO1)C1(Cc2ccc(-c3ccc(F)c(F)c3)cc2)CCOCC1 (stereo not drawn) [CBK285534]
The viability at 28.5 h, 10 µM of the first is higher: 99.5% for the first, 97.2% for the second.

Going from `CC(C)NC(=O)c1sc2ccccc2c1C1CN(Cc2c[nH]nc2C(C)(C)C)CCO1` (stereo not drawn) [CBK285535] to `COc1cccc(CNC(=O)c2cc3c(nc2N)CCN(Cc2cccc(C)c2OC)C3)c1` [CBK285682], the viability at 28.5 h, 10 µM rises from 93.5% to 98.6%.

Going from `COc1ccc(F)cc1-c1ccc(CC2(C(=O)NC3CCCCC3)CCOCC2)cc1` [CBK285538] to `O=C(NCC1CCCCC1)C1(Cc2ccc(-c3ccncc3)cc2)CCOCC1` [CBK285564], the viability at 28.5 h, 10 µM rises from 86.6% to 121%.

Compared with `COc1ccc(F)cc1-c1cccc(CC2(C(=O)NCc3cccs3)CCOCC2)c1` [CBK285543], `COc1ccccc1-c1cccc(CC2(C(=O)NCCc3ccccc3)CCOCC2)c1` [CBK285593] is higher in viability at 28.5 h, 10 µM: 90.6% for the first, 93.6% for the second.

Compared with `O=C(c1cccc(Cn2cccn2)c1)N1CCc2sccc2C1c1ccccc1` (stereo not drawn) [CBK285552], `Cc1nnnn1-c1ccc(CC(=O)N2CCc3sccc3C2c2ccccc2)cc1` (stereo not drawn) [CBK285567] is higher in viability at 28.5 h, 10 µM: 85.8% for the first, 103% for the second.

Going from `O=C(NCCc1ccc(Cl)cc1)C1CCN(C(=O)c2ccc3nsnc3c2)C1` (stereo not drawn) [CBK285553] to `O=C(NCCc1ccc(Cl)cc1)C1(Cc2cccc(-c3cccnc3)c2)CCOCC1` [CBK285606], the viability at 28.5 h, 10 µM rises from 95.2% to 96.7%.

First: Cc1ccc(C(=O)Nc2cccc(CCc3ccncc3)c2)c(=O)n1C [CBK285556]
Second: Cc1cnc2c(C(=O)Nc3cccc(CCc4ccncc4)c3)cnn2c1 [CBK285558]
The viability at 28.5 h, 10 µM of the first is lower: 84.4% for the first, 106% for the second.

First: COc1ccc(NC(=O)c2cn(C)nc2CC2CCN(CCc3ccccc3)CC2)cc1 [CBK285559]
Second: COc1ccc(CN2CCC(c3ncc(C(=O)Nc4ccc(F)cc4)c(C)n3)CC2)cc1 [CBK285629]
The viability at 28.5 h, 10 µM of the first is lower: 90.9% for the first, 101% for the second.

Going from `O=C(CC1NC(=O)N(C2CCCCC2)C1=O)Nc1cccc(CCc2ccncc2)c1` (stereo not drawn) [CBK285563] to `CC(=O)N1CCCCC[C@@H]2[C@@H]1C[C@@H](Cc1ccccc1)N2C(=O)c1ccccc1` [CBK285576], the viability at 28.5 h, 10 µM rises from 93.1% to 115%.

First: O=C(Nc1ccc(-c2cccc(F)c2)cc1)c1ccccc1Cn1cncn1 [CBK285565]
Second: O=C(Nc1ccccc1Oc1ccc(F)cc1)c1ccc(Cn2cncn2)cc1 [CBK285587]
The viability at 28.5 h, 10 µM of the first is lower: 95.6% for the first, 118% for the second.

Going from `Nc1ncc(-c2ccc(Cl)cc2)c(C2CCCN(C(=O)Cc3c[nH]c4ccccc34)C2)n1` (stereo not drawn) [CBK285574] to `Nc1ncc(-c2ccc(C(F)(F)F)cc2)c(C2CCCN(C(=O)CN3CCCC3)C2)n1` (stereo not drawn) [CBK285649], the viability at 28.5 h, 10 µM falls from 113% to 91.6%.

Going from `COc1ccc([C@@H]2CN(C(=O)c3ccccc3)[C@H]3CCN(Cc4ccc(F)cc4)C[C@@H]23)cc1` [CBK285581] to `COc1ccc([C@H]2CN(C(=O)c3ccccc3)[C@@H]3CCN(Cc4ccccc4)C[C@H]23)cc1` [CBK285592], the viability at 28.5 h, 10 µM falls from 109% to 98.5%.

`COc1ccc([C@H]2CN(C(=O)c3ccccc3)[C@@H]3CCN(Cc4cccs4)C[C@H]23)cc1` [CBK285582] and `COc1ccc([C@H]2CN(C(=O)c3ccccc3)[C@@H]3CCN(Cc4ccsc4)C[C@H]23)cc1` [CBK285585] are the same in viability at 28.5 h, 10 µM: 103% for the first, 103% for the second.

First: COc1ccc([C@H]2CN(C(=O)c3ccccc3)[C@@H]3CCN(Cc4ccccc4C)C[C@H]23)cc1 [CBK285583]
Second: COc1cccc([C@H]2CN(C(=O)c3ccccc3)[C@@H]3CCN(Cc4ccccc4C)C[C@H]23)c1 [CBK285610]
The viability at 28.5 h, 10 µM of the first is higher: 105% for the first, 98.6% for the second.

Compared with `O=C(NCCc1ccc(Cl)cc1)C1(Cc2ccc(-c3cccnc3)cc2)CCOCC1` [CBK285589], `O=C(NCCc1ccccc1Cl)C1(Cc2ccc(-c3cccnc3)cc2)CCOCC1` [CBK285590] is higher in viability at 28.5 h, 10 µM: 94.6% for the first, 95.5% for the second.

Compared with `NC(=O)C1(Cc2ccccc2-c2ccccc2)CCN(C(=O)CCc2ccccc2)CC1` [CBK285595], `CNC(=O)C1(Cc2ccccc2-c2ccccc2)CCN(C(=O)Cc2ccccc2)CC1` [CBK285695] is lower in viability at 28.5 h, 10 µM: 107% for the first, 93.3% for the second.

First: CN(C(=O)c1c[nH]nc1-c1ccc(CNC(=O)Cc2ccc(F)cc2)cc1)c1ccccc1 [CBK285599]
Second: Cc1ccc(C(=O)NCc2ccc(-c3n[nH]cc3C(=O)N(C)c3ccccc3)cc2)cc1 [CBK285600]
The viability at 28.5 h, 10 µM of the first is lower: 95.9% for the first, 98.7% for the second.

Going from `O=C(c1ccccc1)N1C[C@@H](c2ccsc2)[C@@H]2CN(Cc3ccccc3)CC[C@@H]21` [CBK285602] to `O=C(c1ccccc1)N1C[C@@H](c2ccsc2)[C@@H]2CN(Cc3cccc(Cl)c3)CC[C@@H]21` [CBK285603], the viability at 28.5 h, 10 µM rises from 104% to 108%.

Going from `O=C(c1ccccc1)N1C[C@H](c2ccsc2)[C@H]2CN(Cc3ccsc3)CC[C@H]21` [CBK285604] to `O=C(c1ccccc1F)N1C[C@H](c2ccsc2)[C@H]2CN(Cc3ccsc3)CC[C@H]21` [CBK285661], the viability at 28.5 h, 10 µM falls from 118% to 107%.

Going from `COc1cccc(C(NC(=O)Cc2ccc(-n3nnnc3C)cc2)c2ccccc2)c1` (stereo not drawn) [CBK285605] to `Cc1nc(CC(NC(=O)C(c2ccccc2)c2ccccc2)c2ccc(F)cc2)cc(=O)[nH]1` (stereo not drawn) [CBK285669], the viability at 28.5 h, 10 µM rises from 93.4% to 101%.

Compared with `O=C(c1ccccc1)N1C[C@@H](c2ccsc2)[C@@H]2CN(Cc3ccc(Cl)cc3)CC[C@@H]21` [CBK285615], `COc1cccc(CN2CC[C@H]3[C@@H](C2)[C@H](c2ccsc2)CN3C(=O)c2ccccc2)c1` [CBK285616] is lower in viability at 28.5 h, 10 µM: 100% for the first, 97.5% for the second.

First: Cc1ccccc1CN1CC[C@H]2[C@@H](C1)[C@H](c1ccsc1)CN2C(=O)c1ccccc1 [CBK285618]
Second: O=C(c1ccccc1F)N1C[C@H](c2ccsc2)[C@H]2CN(Cc3cccc(F)c3)CC[C@H]21 [CBK285660]
The viability at 28.5 h, 10 µM of the first is lower: 100% for the first, 120% for the second.

First: Cc1ccccc1Cc1cccc(C2CCN(C(=O)Cc3ccccc3)CC2)n1 [CBK285625]
Second: CNC(=O)C1(Cc2ccccc2-c2cccs2)CCN(C(=O)Cc2cccc(C)c2)CC1 [CBK285686]
The viability at 28.5 h, 10 µM of the first is lower: 94.7% for the first, 105% for the second.

First: Cc1ccc(S(=O)(=O)NCc2ccc(-c3nn(C)cc3-c3ccncc3C)cc2)cc1 [CBK285632]
Second: Cc1cnccc1-c1cn(C)nc1-c1ccc(CNC(=O)c2cccc(N(C)C)c2)cc1 [CBK285633]
The viability at 28.5 h, 10 µM of the first is higher: 89.2% for the first, 86.5% for the second.

Going from `CCC(=O)N1CCCC1c1nc(C)c2c(n1)N(Cc1ccccc1OC)CCC2` (stereo not drawn) [CBK285642] to `Cc1ccc(C)c(C2CCCN2C(=O)c2ccc(=O)n(CC(=O)N(C)c3ccccc3)c2)c1` (stereo not drawn) [CBK285654], the viability at 28.5 h, 10 µM rises from 91.9% to 97.5%.

Going from `Cc1nc(-c2ccc(CNS(=O)(=O)c3ccc(Cl)cc3)cc2)ccc1C(N)=O` [CBK285643] to `Cc1ccc(-c2cc(C(=O)NCc3ccc(-c4ccc(C(N)=O)c(C)n4)cc3)no2)cc1` [CBK285644], the viability at 28.5 h, 10 µM rises from 90.5% to 116%.

First: COc1cc(CN2C[C@@H](c3ccccc3)[C@@H]3NC(=O)CCCC[C@H]32)cc(OC)c1 [CBK285646]
Second: CNC(=O)C1(Cc2ccccc2-c2ccccc2)CCN(C(=O)CCC2CCCC2)CC1 [CBK285696]
The viability at 28.5 h, 10 µM of the first is higher: 89.6% for the first, 89.4% for the second.

Compared with `COc1ccccc1-c1ccc(NC(=O)CCc2nc3ccccc3[nH]2)cc1` [CBK285651], `CNC(=O)C1(Cc2ccccc2-c2cccs2)CCN(C(=O)c2ccccc2OC)CC1` [CBK285685] is higher in viability at 28.5 h, 10 µM: 103% for the first, 107% for the second.

First: CN(C(=O)Cn1cc(C(=O)NCC(C)(C)c2ccc(F)cc2)ccc1=O)c1ccccc1 [CBK285662]
Second: O=C(Nc1ccc(-c2ccc(F)cc2)cc1)c1ccc(N2C(=O)CCC2=O)cc1 [CBK285683]
The viability at 28.5 h, 10 µM of the first is higher: 108% for the first, 98% for the second.

First: COc1ccc(-c2csc(CCNC(=O)Cc3c[nH]c(=O)[nH]c3=O)n2)cc1 [CBK285670]
Second: Cc1ccc2c(c1)C(=O)CC1(CCN(C(=O)Cc3c(C)[nH]c(=O)[nH]c3=O)CC1)O2 [CBK285688]
The viability at 28.5 h, 10 µM of the first is higher: 92.4% for the first, 91.6% for the second.

Compared with `CNC(=O)C1(Cc2ccccc2-c2cccs2)CCN(C(=O)COc2ccccc2)CC1` [CBK285684], `CCCNC(=O)C1(Cc2ccccc2-c2cccs2)CCN(C(=O)c2ccccc2)CC1` [CBK285694] is lower in viability at 28.5 h, 10 µM: 118% for the first, 95% for the second.

First: CCNC(=O)C1(Cc2ccccc2-c2ccccc2)CCN(C(=O)c2cccc(F)c2)CC1 [CBK285689]
Second: CCNC(=O)C1(Cc2ccccc2-c2ccccc2)CCN(C(=O)c2csc(C)c2)CC1 [CBK285698]
The viability at 28.5 h, 10 µM of the first is lower: 88.7% for the first, 93.3% for the second.

First: NC(=O)C1(Cc2ccccc2-c2cccc(F)c2)CCN(C(=O)c2cccc(F)c2)CC1 [CBK285693]
Second: CNC(=O)C1(Cc2ccccc2-c2cccs2)CCN(C(=O)Cc2ccc(C)cc2)CC1 [CBK285697]
The viability at 28.5 h, 10 µM of the first is higher: 96.8% for the first, 95% for the second.
